{"source": "patent US20150196514A1", "about": "“METHOD OF TREATING CARDIOVASCULAR EVENTS USING COLCHICINE CONCURRENTLY WITH AN ANTITHROMBOTIC DRUG” (Murray and Poole Enterprises Limited, priority 2012, published 2015)", "key": {"[1]": {"system": "patients with a first episode of recurrent pericarditis", "details": "at 18 months, colchicine 1.0-2.0 mg first day then 0.5-1.0 mg/d for 6 months added to conventional treatment; cited from earlier work"}, "[2]": {"system": "patients with acute pericarditis", "details": "at 18 months, colchicine 1.0 to 2.0 mg first day then 0.5 to 1.0 mg/day for 3 months added to conventional treatment, p=0.004; cited from earlier work"}, "[3]": {"system": "patients with clinically stable coronary disease", "experiment": "LoDoCo Trial: colchicine 0.5 mg/day added to standard secondary prevention therapies", "experimental": "To assess the therapeutic effects of an immediate release formulation in patients with cardiovascular disease, a prospective randomized observer blinded end-point trial was conducted to determine whether adding 0.5 mg/day of colchicine to standard secondary prevention therapies including aspirin and high dose statins reduces the risk of cardiovascular events in patients with objectively diagnosed and clinically stable coronary disease.\nEligible consenting patients with established coronary disease presenting for routine clinical review were randomized to receive colchicine 0.5 mg/day or no colchicine without any other change to their medical therapy. All outcomes were evaluated by an experienced adjudicator blinded to the treatment allocation.\nIt was planned to recruit a study population that would include 500 patients planned (532 patients randomized as 32 dropped out early), 250 randomized to the control group and 250 patients randomized to treatment who were tolerant of colchicine for at least 4 weeks after the date of their randomization. Patients were eligible for inclusion if they met each of the following criteria: 1) angiographically proven coronary disease; 2) aged 35 to 85 years; 3) clinically stable for at least 6 months, 4) no major competing co-morbidities or contra-indication to colchicine therapy, 5) considered to be compliant with therapy and attending routine cardiology follow up appointments, and 6) willing to be consented and randomized into the study. Patients with a history of bypass surgery were only eligible if they had undergone bypass surgery more than 10 years before, or had angiographic evidence of graft failure or had undergone stenting since their bypass surgery. All patients signed informed consent before randomization.\nThe randomization sequence was computer generated, kept concealed from the investigators at all times and was managed by a research assistant who had no involvement in the evaluation or management of study patients. […] Despite electing to use the lowest dose of colchicine available, it was anticipated that a number of patients would withdraw from therapy early after randomization due to gastrointestinal side effects. In order to ensure that the requisite number of patients in the treatment arm were actually tolerant of treatment, the protocol allowed for the research assistant to assign a newly recruited patient to treatment if a patient discontinued colchicine due to side effects in the first month. Patients who were intolerant to therapy remained in the study, and were followed in the usual manner and included in the primary intention to treat analysis.\nThe drug was dispensed by their usual chemist, and if requested, patients were reimbursed for the cost of these scripts. All other treatments were continued as usual.\nPatient compliance with treatment and outcome data were collected at routine follow up visits and at the time of any unplanned hospital admission. An acute coronary syndrome (ACS) was defined as either (a) Acute Myocardial Infarction (AMI), as evidenced by acute ischemic chest pain associated with a rise in serum troponin above the upper limit of normal or (b) Unstable Angina (UA), as evidenced by a recent acceleration of the patient's angina unassociated with a rise in serum troponin but associated with angiographic evidence of a change in the patient's coronary anatomy. […] The ACS was characterized as being stent-related if there was evidence of significant in-stent stenosis or acute stent thrombosis. Out of Hospital Cardiac Arrest was defined as either a sudden death as evidenced on the patient's death certificate, or a non-fatal out of hospital cardiac arrest, defined as a recovery from sudden collapse associated with documented asystole, ventricular tachycardia or ventricular fibrillation."}, "[4]": {"details": "No treatment (no antithrombotic drug), colchicine group 1"}, "[5]": {"details": "Treated with Aspirin + clopidogrel + warfarin, colchicine group 2"}, "[6]": {"details": "Treated with Aspirin + clopidogrel, colchicine group 33"}, "[7]": {"details": "Treated with Aspirin + warfarin, colchicine group 6"}, "[8]": {"details": "Treated with Aspirin alone, colchicine group 173"}, "[9]": {"details": "Treated with Clopidogrel alone or warfarin alone (no aspirin), colchicine group 28"}, "[10]": {"details": "Treated with Clopidogrel alone, colchicine group 12"}, "[11]": {"details": "Treated with Warfarin alone, colchicine group 16"}, "[12]": {"details": "Treated with a least one antiplatelet drug (at least aspirin, clopidogrel or combinations thereof), colchicine group 226"}, "[13]": {"details": "Treated with at least aspirin, colchicine group 214"}, "[14]": {"details": "Treated with at least one antithrombotic drugs (at least aspirin, clopidogrel or warfarin or combinations thereof), colchicine group 242"}, "[15]": {"details": "intention to treat, 282 patients"}}}
{"smiles": "CC(=O)Oc1ccccc1C(=O)O", "note": "[aspirin]", "values": [{"measurement": "recurrence rate (actuarial rates)", "setting": "[1]", "result": 50.6, "unit": "%"}, {"measurement": "recurrence rate", "setting": "[2]", "result": 32.3, "unit": "%"}]}
{"smiles": "COc1cc2c(c(OC)c1OC)-c1ccc(OC)c(=O)cc1[C@@H](NC(C)=O)CC2", "note": "[colchicine, N[5,6,7,9-tetrahydro-1,2,3,10-tetratmethoxy 9-oxobenzo[a]heptalen-7-yl],(S)-acetamide]", "values": [{"measurement": "recurrence rate (actuarial rates)", "setting": "[1]", "result": 24.0, "unit": "%"}, {"measurement": "recurrence rate", "setting": "[2]", "result": 10.7, "unit": "%"}, {"measurement": "early intolerance due to gastrointestinal side effects, incidence", "setting": "[3]; 282 randomized to treatment", "result": 11, "unit": "%"}, {"measurement": "Primary Outcome, number of patients", "setting": "[3]; [4]", "result": "0 (0%)"}, {"measurement": "Primary Outcome, percent", "setting": "[3]; [4]", "result": "0 (0%)"}, {"measurement": "Primary Outcome, number of patients", "setting": "[3]; Total*, colchicine group 243", "result": 11}, {"measurement": "Primary Outcome, percent", "setting": "[3]; Total*, colchicine group 243", "result": 4.5, "unit": "%"}, {"measurement": "Primary Outcome, number of patients", "setting": "[3]; [5]", "result": "0 (0%)"}, {"measurement": "Primary Outcome, percent", "setting": "[3]; [5]", "result": "0 (0%)"}, {"measurement": "Primary Outcome, number of patients", "setting": "[3]; [6]", "result": 3}, {"measurement": "Primary Outcome, percent", "setting": "[3]; [6]", "result": 9, "unit": "%"}, {"measurement": "Primary Outcome, number of patients", "setting": "[3]; [7]", "result": "0 (0%)"}, {"measurement": "Primary Outcome, percent", "setting": "[3]; [7]", "result": "0 (0%)"}, {"measurement": "Primary Outcome, number of patients", "setting": "[3]; [8]", "result": 7}, {"measurement": "Primary Outcome, percent", "setting": "[3]; [8]", "result": 4, "unit": "%"}, {"measurement": "Primary Outcome, number of patients", "setting": "[3]; [9]", "result": 1}, {"measurement": "Primary Outcome, percent", "setting": "[3]; [9]", "result": 3.45, "unit": "%"}, {"measurement": "Primary Outcome, number of patients", "setting": "[3]; [10]", "result": 1}, {"measurement": "Primary Outcome, percent", "setting": "[3]; [10]", "result": 8.3, "unit": "%"}, {"measurement": "Primary Outcome, number of patients", "setting": "[3]; [11]", "result": "0 (0%)"}, {"measurement": "Primary Outcome, percent", "setting": "[3]; [11]", "result": "0 (0%)"}, {"measurement": "Primary Outcome, number of patients", "setting": "[3]; [12]", "result": 11}, {"measurement": "Primary Outcome, percent", "setting": "[3]; [12]", "result": 4.9, "unit": "%"}, {"measurement": "Primary Outcome, number of patients", "setting": "[3]; [13]", "result": 10}, {"measurement": "Primary Outcome, percent", "setting": "[3]; [13]", "result": 4.67, "unit": "%"}, {"measurement": "Primary Outcome, number of patients", "setting": "[3]; [14]", "result": 11}, {"measurement": "Primary Outcome, percent", "setting": "[3]; [14]", "result": 4.5, "unit": "%"}, {"measurement": "risk of a cardiovascular event, including an ACS, out of hospital cardiac arrest and non-cardio-embolic ischemic stroke", "setting": "[3]; colchicine 0.5 mg/day added to standard therapy in patients with stable coronary disease", "result": "significantly reduces the risk"}, {"measurement": "patients who died of non-cardiac causes", "setting": "[3]; colchicine group", "result": 4, "unit": "patients"}, {"measurement": "patients who died", "setting": "[3]; colchicine group, study period", "result": 4, "unit": "patients"}, {"measurement": "ACS unrelated to stent disease associated with UA, incidence", "setting": "[3]; [15]", "result": 1.8, "unit": "%"}, {"measurement": "ACS unrelated to stent disease associated with an AMI, incidence", "setting": "[3]; [15]", "result": 1.4, "unit": "%"}, {"measurement": "ACS unrelated to stent disease, incidence", "setting": "[3]; [15]", "result": 3.2, "unit": "%"}, {"measurement": "ACS, incidence", "setting": "[3]; [15]", "result": 4.6, "unit": "%"}, {"measurement": "primary outcome, incidence", "setting": "[3]; intention to treat, 282 patients assigned to colchicine 0.5 mg/day, median follow up 36 months", "result": 5.3, "unit": "%"}, {"measurement": "primary outcome, hazard ratio", "setting": "[3]; intention to treat, colchicine vs control group, 95% CI 0.18-0.59, p<0.001", "result": 0.33}, {"measurement": "ACS unrelated to stent disease associated with UA, patients", "setting": "[3]; intention to treat, of 282", "result": 5}, {"measurement": "ACS unrelated to stent disease associated with an AMI, patients", "setting": "[3]; intention to treat, of 282", "result": 4}, {"measurement": "ACS unrelated to stent disease, patients", "setting": "[3]; intention to treat, of 282", "result": 9}, {"measurement": "patients presenting with an ACS", "setting": "[3]; intention to treat, of 282", "result": 13}, {"measurement": "primary outcome (ACS, out of hospital cardiac arrest or non-cardio-embolic ischemic stroke), patients with event", "setting": "[3]; intention to treat, of 282 patients assigned to colchicine 0.5 mg/day, median follow up 36 months", "result": 15, "unit": "patients"}, {"measurement": "early intolerance due to gastrointestinal side effects, patients", "setting": "[3]; of 282 randomized to treatment", "result": 32}, {"measurement": "events (primary outcome), hazard ratio", "setting": "[3]; on-treatment vs control, 95% CI 0.15-0.56, p<0.001", "result": 0.29}, {"measurement": "events (primary outcome), incidence", "setting": "[3]; on-treatment: compliant and tolerant to therapy beyond the first month, 243 patients", "result": 4.5, "unit": "%"}, {"measurement": "events (primary outcome), patients", "setting": "[3]; on-treatment: compliant and tolerant to therapy beyond the first month, of 243", "result": 11}, {"measurement": "stent related ACS with evidence of acute stent thrombosis, patients", "setting": "[3]; per group", "result": 2}, {"measurement": "stent related ACS with evidence of significant in-stent stenosis, patients", "setting": "[3]; per group", "result": 2}, {"measurement": "number needed to treat", "setting": "[3]; primary outcome, intention to treat", "result": 11}, {"measurement": "out of hospital cardiac arrest and non-cardio-embolic ischemic stroke", "setting": "[3]; treatment group vs control, infrequent events", "result": "reduced"}, {"measurement": "AMI unrelated to stent disease, hazard ratio", "setting": "[3]; vs control, 95% CI 0.08-0.76, p=0.014", "result": 0.25}, {"measurement": "UA unrelated to stent disease, hazard ratio", "setting": "[3]; vs control, 95% CI 0.10-0.75, p=0.011", "result": 0.27}, {"measurement": "ACS unrelated to stent disease, hazard ratio", "setting": "[3]; vs control, 95% CI 0.12-0.55, p<0.001", "result": 0.26}, {"measurement": "ACS, hazard ratio", "setting": "[3]; vs control, 95% CI 0.18-0.63, p<0.001", "result": 0.33}]}
